We go through 18 molecules from patent US10364245B2 (CHIESI FARMACEUTICI S.p.A., priority 2017, dated 2019).

Where a name gives a salt, the structure may show the parent alone.

The target in one test is T1, p38 alpha (Homo sapiens, UniProt Q16539).
T1 construct: purchased Invitrogen PV3304
In words: P38 alpha enzyme inhibition assay (Alphascreen kinase activity assay). Format: biochemical. The note with it: 100 pM p38 alpha, 2 hours preincubation at 25° C., 250 μM ATP, ATF-2 fusion protein; read-out: p38α inhibition. The procedure, abridged: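 100 pM p38 alpha preincubated 2 h at 25 °C with compound and 0.3 μg/ml ATF-2 fusion substrate (HEPES pH 7.5, MgCl2, 1% DMSO). Reaction started with 250 μM ATP, run 1 h at 25 °C, stopped with EDTA; phospho-ATF2 detected by AlphaScreen luminescence. IC50 from concentration-response curves.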

The test system of test [1] is Peripheral Blood Mononuclear Cells (PBMCs), TNFα release. In words: LPS-stimulated PBMC TNFα release assay. Conditions: human PBMC, LPS (10 ng/ml), 18 h, compound 1 h before LPS; read-out: LPS-stimulated PBMC TNFα release inhibition. The format is cell-based. A digest of the protocol:
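Human PBMCs from healthy donors, serum-starved 3 h, then pre-incubated 1 h at 37 °C with compound in 1% FBS medium before LPS (10 ng/ml) for 18 h. Supernatant TNFα measured by MSD; IC50 from dose-response as % inhibition of control, at least three experiments.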

T1 sequence (Q16539 whole entry): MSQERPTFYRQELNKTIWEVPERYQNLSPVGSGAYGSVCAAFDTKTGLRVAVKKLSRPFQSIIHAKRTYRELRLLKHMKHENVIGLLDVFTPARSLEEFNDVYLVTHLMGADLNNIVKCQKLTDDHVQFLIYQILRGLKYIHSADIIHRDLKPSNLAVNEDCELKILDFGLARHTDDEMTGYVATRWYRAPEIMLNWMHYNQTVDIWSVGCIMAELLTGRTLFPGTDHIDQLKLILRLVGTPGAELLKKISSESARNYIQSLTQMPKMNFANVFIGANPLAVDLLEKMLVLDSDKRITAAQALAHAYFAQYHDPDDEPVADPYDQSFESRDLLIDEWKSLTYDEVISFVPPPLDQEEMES

`COCC(C)(C)c1nnc2ccc(O[C@@H]3CC[C@H](NC(=O)Nc4cc(C(C)(C)C)nc(C(=O)NCC(C)(C)N5CCN(C)CC5)n4)c4ccccc43)cn12` [Example 155, 4-(tert-butyl)-6-(3-((1S,4R)-4-((3-(1-methoxy-2-methylpropan-2-yl)-[1,2,4]triazolo[4,3-a]pyridin-6-yl)oxy)-1,2,3,4-tetrahydronaphthalen-1-yl)ureido)-N-(2-methyl-2-(4-methylpiperazin-1-yl)propyl)pyrimidine-2-carboxamide]: the IC50 at p38 alpha is less than 1 nM; in test [1] it was more than 5 nM.

As to `CCC(CC)c1nnc2ccc(O[C@@H]3CC[C@H](NC(=O)Nc4cc(C(C)(C)C)nc(C(=O)NCC(C)(C)N(C)CC)n4)c4ccccc43)cn12` [Example 176, 4-(tert-butyl)-N-(2-(ethyl(methyl)amino)-2-methylpropyl)-6-(3-((1S,4R)-4-((3-(pentan-3-yl)-[1,2,4]triazolo[4,3-a]pyridin-6-yl)oxy)-1,2,3,4-tetrahydronaphthalen-1-yl)ureido)pyrimidine-2-carboxamide], the IC50 at p38 alpha is less than 1 nM; in test [1], 1 to 5 nM.

As for `CC[C@H](C)c1nnc2ccc(O[C@@H]3CC[C@H](NC(=O)Nc4cc(C(=O)NCCN(C)C)nc(C(C)(C)C)c4)c4ccccc43)cn12` [Example 201, 6-(tert-Butyl)-4-(3-((1S,4R)-4-((3-((S)-sec-butyl)-[1,2,4]triazolo[4,3-a]pyridin-6-yl)oxy)-1,2,3,4-tetrahydronaphthalen-1-yl)ureido)-N-(2-(dimethylamino)ethyl)-picolinamide formate salt], the results for the IC50 (at p38 alpha; in test [1]) were less than 1 nM and 1 to 5 nM, respectively.

Turning to `CN(C)CCNC(=O)c1nc(NC(=O)N[C@H]2CC[C@@H](Oc3ccc4nnc(C(C)(C)C)n4c3)c3ccccc32)cc(C(C)(C)C)n1` [Example 1, 4-(tert-Butyl)-6-(3-((1S,4R)-4-((3-(tert-butyl)-[1,2,4]triazolo[4,3-a]pyridin-6-yl)oxy)-1,2,3,4-tetrahydronaphthalen-1-yl)ureido)-N-(2-(dimethylamino)ethyl)-pyrimidine-2-carboxamide], the IC50 at p38 alpha is less than 1 nM; in test [1] it was 1 to 5 nM.

In the case of `CCC(CC)c1nnc2ccc(O[C@@H]3CC[C@H](NC(=O)Nc4cc(C(C)(C)C)nc(C(=O)NCCN(C)CCOC)n4)c4ccccc43)cn12` [Example 73, 4-(tert-butyl)-N-(2-((2-methoxyethyl)(methyl)amino)ethyl)-6-(3-((1S,4R)-4-((3-(pentan-3-yl)-[1,2,4]triazolo[4,3-a]pyridin-6-yl)oxy)-1,2,3,4-tetrahydronaphthalen-1-yl)ureido)pyrimidine-2-carboxamide], the figures for the IC50 (on p38 alpha; in test [1]) were less than 1 nM and 1 to 5 nM, respectively.

Consider `CN1CCN(CCNC(=O)c2nc(NC(=O)N[C@H]3CC[C@@H](Oc4ccc5nnc(C(C)(C)C)n5c4)c4ccccc43)cc(C(C)(C)C)n2)CC1` [Example 119, 4-(tert-butyl)-6-(3-((1S,4R)-4-((3-(tert-butyl)-[1,2,4]triazolo[4,3-a]pyridin-6-yl)oxy)-1,2,3,4-tetrahydronaphthalen-1-yl)ureido)-N-(2-(4-methylpiperazin-1-yl)ethyl)pyrimidine-2-carboxamide], for which the IC50 at p38 alpha is less than 1 nM; in test [1], more than 5 nM.

On to `CN(C)CCNC(=O)c1nc(NC(=O)N[C@H]2CC[C@@H](Oc3ccc4nnc([C@]5(C)CCCN5C)n4c3)c3ccccc32)cc(C(C)(C)C)n1` [Example 28, 4-(tert-Butyl)-N-(2-(dimethylamino)ethyl)-6-(3-((1S,4R)-4-((3-((S)-1,2-dimethylpyrrolidin-2-yl)-[1,2,4]triazolo[4,3-a]pyridin-6-yl)oxy)-1,2,3,4-tetrahydronaphthalen-1-yl)ureido)pyrimidine-2-carboxamide], for which the values for the IC50 (at p38 alpha; in test [1]) were less than 1 nM and 1 to 5 nM, respectively.

Consider `COCCN(CCNC(=O)c1nc(NC(=O)N[C@H]2CC[C@@H](Oc3ccc4nnc(C(C)(C)C)n4c3)c3ccccc32)cc(C(C)(C)C)n1)CCOC` [Example 92, N-(2-(bis(2-methoxyethyl)amino)-ethyl)-4-(tert-butyl)-6-(3-((1S,4R)-4-((3-(tert-butyl)-[1,2,4]triazolo[4,3-a]pyridin-6-yl)oxy)-1,2,3,4-tetrahydronaphthalen-1-yl)ureido)pyrimidine-2-carboxamide], for which the IC50 at p38 alpha is 1 to 10 nM; in test [1] it was more than 5 nM.

For `CN1CCC[C@@]1(C)c1nnc2ccc(O[C@@H]3CC[C@H](NC(=O)Nc4cc(CO)nc(C(C)(C)C)c4)c4ccccc43)cn12` [Example 51, 1-(2-(tert-Butyl)-6-(hydroxymethyl)pyridin-4-yl)-3-((1S,4R)-4-((3-((S)-1,2-dimethylpyrrolidin-2-yl)-[1,2,4]triazolo[4,3-a]pyridin-6-yl)oxy)-1,2,3,4-tetrahydronaphthalen-1-yl)urea], the IC50 (at p38 alpha; in test [1]) was less than 1 nM throughout.

As to `CCN(C)CCNC(=O)c1nc(NC(=O)N[C@H]2CC[C@@H](Oc3ccc4nnc(N(CC)CC)n4c3)c3ccccc32)cc(C(C)(C)C)n1` [Example 11, 4-(tert-Butyl)-6-(3-((1S,4R)-4-((3-(diethylamino)-[1,2,4]triazolo[4,3-a]pyridin-6-yl)oxy)-1,2,3,4-tetrahydronaphthalen-1-yl)ureido)-N-(2-(ethyl(methyl)amino)ethyl)pyrimidine-2-carboxamide], the IC50 was less than 1 nM at p38 alpha and 1 to 5 nM in test [1].

With `CCS(=O)(=O)Nc1cc(NC(=O)N[C@H]2CC[C@@H](Oc3ccc4nnc([C@]5(C)CCCN5C)n4c3)c3ccccc32)cc(C(C)(C)C)n1` [Example 213, N-(6-(tert-Butyl)-4-(3-((1S,4R)-4-((3-((S)-1,2-dimethylpyrrolidin-2-yl)-[1,2,4]triazolo[4,3-a]pyridin-6-yl)oxy)-1,2,3,4-tetrahydronaphthalen-1-yl)ureido)pyridin-2-yl)ethanesulfonamide], the IC50 was less than 1 nM at p38 alpha and 1 to 5 nM in test [1].

Turning to `COC1CN(CCNC(=O)c2nc(NC(=O)N[C@H]3CC[C@@H](Oc4ccc5nnc(C6(C)CC6)n5c4)c4ccccc43)cc(C(C)(C)C)n2)C1` [Example 138, 4-(tert-butyl)-N-(2-(3-methoxyazetidin-1-yl)ethyl)-6-(3-((1S,4R)-4-((3-(1-methylcyclopropyl)-[1,2,4]triazolo[4,3-a]pyridin-6-yl)oxy)-1,2,3,4-tetrahydronaphthalen-1-yl)ureido)pyrimidine-2-carboxamide], the IC50 was less than 1 nM on p38 alpha and more than 5 nM in test [1].

With `CC(C)(C)c1cc(NC(=O)N[C@H]2CC[C@@H](Oc3ccc4nnc(C5(C)CCCC5)n4c3)c3ccccc32)nc(C(=O)NCCN2CCOCC2)n1` [Example 25, 4-(tert-Butyl)-6-(3-((1S,4R)-4-((3-(1-methylcyclopentyl)-[1,2,4]triazolo[4,3-a]pyridin-6-yl)oxy)-1,2,3,4-tetrahydronaphthalen-1-yl)ureido)-N-(2-morpholinoethyl)pyrimidine-2-carboxamide], the IC50 (on p38 alpha; in test [1]) was less than 1 nM each time.

For `CCC(CC)c1nnc2ccc(O[C@@H]3CC[C@H](NC(=O)Nc4cc(C(C)(C)C)nc(C(=O)NCC(C)(C)N5CCN(C)CC5)n4)c4ccccc43)cn12` [Example 173, 4-(tert-butyl)-N-(2-methyl-2-(4-methylpiperazin-1-yl)propyl)-6-(3-((1S,4R)-4-((3-(pentan-3-yl)-[1,2,4]triazolo[4,3-a]pyridin-6-yl)oxy)-1,2,3,4-tetrahydronaphthalen-1-yl)ureido)pyrimidine-2-carboxamide formate salt], the IC50 at p38 alpha was less than 1 nM; in test [1], 1 to 5 nM.

With `CN1CCC[C@@]1(C)c1nnc2ccc(O[C@@H]3CC[C@H](NC(=O)Nc4cc(C(C)(C)C)nc(CO)n4)c4ccccc43)cn12` [Example 27, 1-(6-(tert-Butyl)-2-(hydroxymethyl)pyrimidin-4-yl)-3-((1S,4R)-4-((3-((S)-1,2-dimethylpyrrolidin-2-yl)-[1,2,4]triazolo[4,3-a]pyridin-6-yl)oxy)-1,2,3,4-tetrahydronaphthalen-1-yl)urea], the IC50 (at p38 alpha; in test [1]) was less than 1 nM each time.

For the molecule `C[C@@H]1CCC[C@H](C)N1c1nnc2ccc(O[C@@H]3CC[C@H](NC(=O)Nc4cc(C(C)(C)C)nc(C(=O)NCCO)n4)c4ccccc43)cn12` [Example 19, 4-(tert-Butyl)-6-(3-((1S,4R)-4-((3-((2R,6S)-2,6-dimethylpiperidin-1-yl)-[1,2,4]triazolo[4,3-a]pyridin-6-yl)oxy)-1,2,3,4-tetrahydronaphthalen-1-yl)ureido)-N-(2-hydroxyethyl)pyrimidine-2-carboxamide], the IC50 (on p38 alpha; in test [1]) was less than 1 nM each time.

In the case of `CC(C)Cc1nnc2ccc(O[C@@H]3CC[C@H](NC(=O)Nc4cc(C(C)(C)C)nc(C(=O)NCCO)n4)c4ccccc43)cn12` [Example 60, 4-(tert-Butyl)-N-(2-hydroxyethyl)-6-(3-((1S,4R)-4-((3-isobutyl-[1,2,4]triazolo[4,3-a]pyridin-6-yl)oxy)-1,2,3,4-tetrahydronaphthalen-1-yl)ureido)pyrimidine-2-carboxamide], the values for the IC50 (at p38 alpha; in test [1]) were less than 1 nM and 1 to 5 nM, respectively.

With `COCC(C)(C)c1nnc2ccc(O[C@@H]3CC[C@H](NC(=O)Nc4cc(C(C)(C)C)nc(C(=O)NCC5(N(C)C)CC5)n4)c4ccccc43)cn12` [Example 149, 4-(tert-butyl)-N-((1-(dimethylamino)cyclopropyl)methyl)-6-(3-((1S,4R)-4-((3-(l-methoxy-2-methylpropan-2-yl)-[1,2,4]triazolo[4,3-a]pyridin-6-yl)oxy)-1,2,3,4-tetrahydronaphthalen-1-yl)ureido)pyrimidine-2-carboxamide], the values for the IC50 (at p38 alpha; in test [1]) were less than 1 nM and 1 to 5 nM, respectively.
